{
  "source": "paper PMC3216861",
  "about": "“Improving L-arabinose utilization of pentose fermenting Saccharomyces cerevisiae cells by heterologous expression of L-arabinose transporting sugar transporters” (Biotechnology for Biofuels, 2011)",
  "key": {"[1]": {"target": "T1, ScHxt10 (Saccharomyces cerevisiae, UniProt P43581)", "T1 construct": "gene HXT10; HXT10 under shortened HXT7 promoter on 2-micron plasmid pTHHXT10, expressed in hexose-transporterless strain TSY01", "T1 sequence (P43581 1-546)": "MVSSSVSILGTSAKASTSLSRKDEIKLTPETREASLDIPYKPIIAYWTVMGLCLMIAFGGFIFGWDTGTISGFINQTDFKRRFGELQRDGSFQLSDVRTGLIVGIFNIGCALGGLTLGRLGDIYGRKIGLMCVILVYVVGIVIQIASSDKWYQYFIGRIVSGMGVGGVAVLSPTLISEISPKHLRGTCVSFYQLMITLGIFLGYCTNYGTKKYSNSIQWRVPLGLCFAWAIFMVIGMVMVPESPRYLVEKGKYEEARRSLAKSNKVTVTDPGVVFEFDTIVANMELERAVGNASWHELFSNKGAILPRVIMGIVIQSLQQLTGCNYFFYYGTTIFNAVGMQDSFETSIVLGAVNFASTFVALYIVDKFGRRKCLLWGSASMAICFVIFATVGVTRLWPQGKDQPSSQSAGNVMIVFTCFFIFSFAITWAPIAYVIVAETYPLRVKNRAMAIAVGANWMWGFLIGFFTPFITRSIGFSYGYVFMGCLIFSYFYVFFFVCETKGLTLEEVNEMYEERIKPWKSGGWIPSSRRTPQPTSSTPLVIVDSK", "assay": "growth complementation of transporter-null L-arabinose-utilizing yeast", "type": "cell-based", "conditions": "20 g/L L-arabinose plates, 30°C, 10 days, strain TSY01; growth read-out only"}, "[2]": {"target": "T2, ScHxt9 (Saccharomyces cerevisiae, UniProt P40885)", "T2 construct": "gene HXT9; HXT9 under shortened HXT7 promoter on 2-micron plasmid pTHHXT9, expressed in hexose-transporterless strain TSY01", "T2 sequence (P40885 1-567)": "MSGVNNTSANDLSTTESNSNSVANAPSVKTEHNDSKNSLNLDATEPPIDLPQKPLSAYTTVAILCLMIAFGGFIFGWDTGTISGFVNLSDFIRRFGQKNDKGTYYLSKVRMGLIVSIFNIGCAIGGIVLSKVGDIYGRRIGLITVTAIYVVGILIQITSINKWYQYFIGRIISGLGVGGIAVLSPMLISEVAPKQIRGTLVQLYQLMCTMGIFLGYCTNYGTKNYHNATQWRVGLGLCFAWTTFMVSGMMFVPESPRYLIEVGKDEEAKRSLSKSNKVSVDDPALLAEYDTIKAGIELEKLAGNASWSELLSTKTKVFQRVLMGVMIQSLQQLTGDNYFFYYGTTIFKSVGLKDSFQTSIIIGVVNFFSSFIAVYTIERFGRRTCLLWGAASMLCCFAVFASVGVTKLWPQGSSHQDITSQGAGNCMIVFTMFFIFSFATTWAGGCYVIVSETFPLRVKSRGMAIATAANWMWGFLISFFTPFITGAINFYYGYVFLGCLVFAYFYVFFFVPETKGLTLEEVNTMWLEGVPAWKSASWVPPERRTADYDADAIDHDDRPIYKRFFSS", "assay": "growth complementation of transporter-null L-arabinose-utilizing yeast", "type": "cell-based", "conditions": "20 g/L L-arabinose plates, 30°C, 10 days, strain TSY01; growth read-out only"}},
  "data": [
    {"molecule": "OC1OC[C@H](O)[C@H](O)[C@H]1O", "note": "(stereo partly drawn) [L-arabinose]", "values": [
      {"measurement": "growth complementation of transporter-null L-arabinose-utilizing yeast", "setting": "[1]", "result": "Transformants expressing ScGal2, ScHxt9 and ScHxt10 could grow on the L-arabinose medium"},
      {"measurement": "growth complementation of transporter-null L-arabinose-utilizing yeast", "setting": "[2]", "result": "Transformants expressing ScGal2, ScHxt9 and ScHxt10 could grow on the L-arabinose medium"}
    ]}
  ]
}
